Experimental data taken from patent US20230303584A1, “4,5,6,7-TETRAHYDROTHIENO[2,3-C]PYRIDINE SUMO INHIBITORS AND USES THEREOF” (SUVALENT THERAPEUTICS INC., priority 2020, published 2023).

Experiments:
[1] = system: SUMO 2/3 conjugates (sumoylation levels) in HCT-116 cells; experiment: HCT-116 4 hour cell assay, immunoblot of SUMO 2/3 conjugates; type: cell-based; conditions: 4 h treatment, Western blot, read-out: Cell HCT-116 Western SUMO 2/3 4 h IC50 (uM) Ave
Description: This protocol describes the procedures used to assess the effects of compounds of interest on sumoylation levels. Immunoblot of SUMO ⅔ conjugates are performed and IC50 curves are generated upon quantification of sumoylations bands. HCT-1 16 cells are seeded in a 12 well plate (500,000 cells/well). The following day the cells are treated with compounds of interest (resuspended in DMSO) for 4 hours (11 concentrations with a three-fold dilution; starting concentration 25 µM) Following 4 hours of incubation the cells are washed with ice cold PBS 1X and protein extraction is performed with RIPA buffer supplemented with phosphatases and proteases inhibitors, 25 mM of NEM and 50 units/mL of Benzonase . Samples undergo centrifugation at 13,000 RPM, 4° C., for 10 minutes and the supernatant is collected. Protein quantification is performed using BCA. Non-Reducing Laemmli Buffer is added to the samples. Samples are heated at 75° C. for 10 minutes, and are centrifuged for 3 minutes at 9000 RPM Nupage 4-12% Bis Tris gels and 1x MOPS buffer (Fisher Scientific) + 1x NuPAGE Antioxidant (Invitrogen) are used to perform the SDS-PAGE gel electrophoresis (20 to 40 µg of proteins are loaded in the gels). Proteins are then transferred to PVDF membranes and the level of total proteins are measured by staining with Revert Total Protein Stain and the fluorescent bands are acquired using the LI-COR FC (700 nm for 1 min) Membranes are blocked for 5 minutes with Bio-Rad Blocking Buffer and are subsequently incubated over night at 4° C. with Anti-Sumo 2-3 mAb (MBL #M114-3, 1:1000 in Bio-Rad Blocking Buffer, 0.2% Tween 20) Membranes are washed with 1X TBS-T (3 times for 5 minutes) and sumoylation is detected using Li-cor IRDye 800CW Goat anti-Mouse IgG secondary antibody (1:10,000 dilution) upon 1 hour of incubation in blocking buffer with 0.2% Tween 20 and 0.01% SDS. After the incubation, the membranes are washed with 1X TBS-T (3 times for 5 minutes). To visualize the fluorescent bands the membranes are scanned with LI-COR FC (700 nm for 1 min and […] for 2 mins) Sumoylation levels are quantified upon normalization with total protein levels, using the LI-COR Image Studio Lite 5.2 Software.

[2] = target: SAE1 (Homo sapiens (Human), UniProt Q9UBT2); experiment: SAE high throughput biochemical (HTRF) assay; conditions: 15 min preincubation; 100 µM ATP; read-out: 15 min preincubation HTRF IC50 (uM) Ave
Description: Assay buffer was prepared [50 mM HEPES, pH 7.5, 0.1% BSA and 10 mM MgCl2] as was the Stop Buffer [100 mM HEPES, pH 7.5, 0.05% Tween20, and 410 mM KF]. The 2x Reaction Buffer [80 nM SUMO-GST, 80 nM UBC9-His, 200 µM ATP and diluted in Assay Buffer] and Antibody Reaction Mix [13.34 nM anti-GST XL665, 1.66 nM anti-His EuK and Diluted in Stop Buffer] were also prepared. Compounds were dissolved at 200x in DMSO in a 384-well plate. Serial dilutions were performed in DMSO for each compound, and then each concentration was diluted another 50-fold in Assay Buffer, to 4x the final concentration. 2.5 µL of each concentration was transferred into its own well in a 384-well plate. SAE1 was then diluted to 4x in Assay Buffer, and 2.5 µL of 4x SAE1 was mixed into each compound-containing well. After incubating for 15 minutes at room temperature, 5 µL of 2x Reaction Buffer was mixed into every well. Then after another 45 minutes at room temperature, 10 µL of Antibody Reaction Mix was added and mixed into every well. This plate was then read on an HTRF-compatible plate reader after 2 hours at room temperature, and again after sitting at room temperature overnight. [Final Component Concentrations: SAE1: 12.5 nM; SUMO-GST: 40 nM; UBC9-His: 40 nM; Anti-GST-XL665: 6.67 nM; Anti-His-EuK: 0.83 nM; and ATP: 100 µM ] Alternatively, the compounds are tested at a single concentration of 25 micromolar and the percent of control is measured.

[3] = target: SUMO activating enzyme (E1) (Homo sapiens (Human), UniProt Q9UBT2); experiment: Inhibitory effect on activating enzyme (E1), 15 min preincubation (Table 2); type: biochemical; conditions: enzyme preincubated with compound for 15 minutes; read-out: E1 biological activity
Description: Compounds are evaluated for their inhibitory effect on activating enzymes (E1) of ubiquitin, SUMO, Nedd8, Urm1, ISG15 or Atg7 using previously reported methods and protocols. One example is in: Allosteric inhibition of ubiquitin-like modifications by a class of inhibitor of SUMO-activating enzyme. Cell Chemical Biology, 26,1-11, 2019. PMID: 28051857. The enzyme was preincubated with the compounds for 15 minutes.

Sequence of SAE1 (Q9UBE0 whole entry partner): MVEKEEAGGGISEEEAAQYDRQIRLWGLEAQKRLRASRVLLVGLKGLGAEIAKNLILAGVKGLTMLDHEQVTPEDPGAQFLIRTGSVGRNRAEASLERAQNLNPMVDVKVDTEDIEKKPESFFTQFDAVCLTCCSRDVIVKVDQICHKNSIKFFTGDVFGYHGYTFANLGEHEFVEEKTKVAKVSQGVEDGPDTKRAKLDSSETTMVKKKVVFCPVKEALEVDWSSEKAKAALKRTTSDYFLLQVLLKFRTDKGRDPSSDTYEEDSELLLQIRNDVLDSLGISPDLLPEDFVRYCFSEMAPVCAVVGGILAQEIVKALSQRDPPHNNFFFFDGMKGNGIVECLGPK
Sequence of SAE1 (Q9UBT2 whole entry): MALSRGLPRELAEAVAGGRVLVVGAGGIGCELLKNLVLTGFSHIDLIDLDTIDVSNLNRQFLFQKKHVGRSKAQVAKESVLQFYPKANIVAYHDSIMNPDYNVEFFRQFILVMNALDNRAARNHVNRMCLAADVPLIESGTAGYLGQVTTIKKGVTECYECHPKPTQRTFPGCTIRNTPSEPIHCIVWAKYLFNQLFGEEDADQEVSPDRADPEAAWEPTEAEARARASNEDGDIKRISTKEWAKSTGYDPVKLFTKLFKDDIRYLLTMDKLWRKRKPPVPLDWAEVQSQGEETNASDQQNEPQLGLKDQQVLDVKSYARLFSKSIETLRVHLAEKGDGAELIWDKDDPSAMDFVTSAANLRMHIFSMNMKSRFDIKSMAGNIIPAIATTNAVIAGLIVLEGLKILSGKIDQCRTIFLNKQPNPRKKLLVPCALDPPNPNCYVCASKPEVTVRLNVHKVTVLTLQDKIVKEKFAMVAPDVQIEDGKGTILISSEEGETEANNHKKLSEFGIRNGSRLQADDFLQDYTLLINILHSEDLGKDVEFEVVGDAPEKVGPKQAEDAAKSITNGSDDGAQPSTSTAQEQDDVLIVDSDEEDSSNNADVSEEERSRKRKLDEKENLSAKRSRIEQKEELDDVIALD
Sequence of SUMO activating enzyme (E1) (Q9UBT2 whole entry): as above
Sequence of SUMO activating enzyme (E1) (Q9UBE0 whole entry partner): as the sequence (Q9UBE0 whole entry partner) above

Row | SMILES | IC50 [1] [µM] | IC50 [3] [nM] | IC50 [2] [µM]
1 | C=CC(=O)N1Cc2sc(Cl)cc2[C@H](c2ccccc2-c2cn(C(C)(C)C(N)=O)nc2C(F)(F)F)C1 [Compound 312] | 0.28 | < 10000 | 0.23
2 | C=CC(=O)N1Cc2sc(Cl)cc2[C@H](c2ccccc2-c2cn(C(C)C)nc2C(F)(F)F)C1 [Compound 255] | – | < 10000 | –
3 | C=CC(=O)N1Cc2sc(C(=C)C)cc2[C@H](c2ccccc2-c2cn(CC)nc2C(F)(F)F)C1 [Compound 318] | 0.33 | – | 0.29
4 | C=CC(=O)N1Cc2sc(Cl)cc2C(c2ccccc2-c2cn(-c3ccncc3Cl)nc2C(F)(F)F)C1 (stereo not shown) [Compound 340] | – | – | 0.93

The next lines start with results.

Row | IC50 [1] [µM] | IC50 [3] [nM] | SMILES | IC50 [2] [µM]
5 | 13.6 | – | C=CC(=O)N1Cc2sc(Cl)cc2[C@H](c2ccccc2-c2cnn(CC)c2CC)C1 [Compound 360] | 4.33
6 | 0.34 | – | C=CC(=O)N1Cc2sc(-c3ccco3)cc2[C@H](c2ccccc2-c2cn(CC)nc2C(F)(F)F)C1 [Compound 324] | 0.14
7 | 0.39 | – | CCn1cc(-c2ccccc2[C@@H]2CN(C(=O)/C=C/CF)Cc3sc(Cl)cc32)c(C(F)(F)F)n1 [Compound 323] | 0.13
